From patent US9718828B2 (MERCK SHARP & DOHME CORP., priority 2011, dated 2017)
pIC50: −log10 of the molar value.

What follows are compounds tested against T1, hBTK (full-length BTK, 6HIS-tag cleaved) (Homo sapiens (Human), UniProt Q06187) (assay: BTK enzymatic activity, LANCE TR-FRET assay (Assay Method C)). Settings: LANCE TR-FRET, 50 pM hBTK, 25 μM ATP; class 100-1000 is given as ≧100 nM-<1 μM; read-out: IC50 Btk activity values - Assay Method C.
Format: biochemical

T1 sequence (Q06187 whole entry): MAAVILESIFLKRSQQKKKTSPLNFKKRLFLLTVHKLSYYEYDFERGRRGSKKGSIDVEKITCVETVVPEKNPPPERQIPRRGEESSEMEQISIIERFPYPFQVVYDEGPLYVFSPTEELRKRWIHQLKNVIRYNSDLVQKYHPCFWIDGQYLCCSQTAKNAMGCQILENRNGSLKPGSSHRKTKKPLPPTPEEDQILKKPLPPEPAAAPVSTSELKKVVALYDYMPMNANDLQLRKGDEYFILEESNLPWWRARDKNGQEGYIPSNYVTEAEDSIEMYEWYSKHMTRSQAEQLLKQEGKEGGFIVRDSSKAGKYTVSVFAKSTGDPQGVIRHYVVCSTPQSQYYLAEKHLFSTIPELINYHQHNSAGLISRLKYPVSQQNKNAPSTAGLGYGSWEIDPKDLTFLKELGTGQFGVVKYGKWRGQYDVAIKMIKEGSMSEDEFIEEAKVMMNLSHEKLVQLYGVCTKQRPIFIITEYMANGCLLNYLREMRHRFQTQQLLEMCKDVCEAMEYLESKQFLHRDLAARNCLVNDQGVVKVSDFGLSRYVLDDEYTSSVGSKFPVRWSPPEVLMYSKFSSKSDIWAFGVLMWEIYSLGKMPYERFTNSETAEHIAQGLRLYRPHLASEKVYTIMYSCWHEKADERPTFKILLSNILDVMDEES

| SMILES | pIC50 |
| --- | --- |
| CS(=O)(=O)CC(=O)N1CCC[C@@H](c2nc(-c3ccc(C(=O)Nc4cc(C(F)(F)F)ccn4)cc3)c3c(N)nccn23)C1 [Example 349, 4-(8-amino-3-{(3R)-1-[(methylsulfonyl)acetyl]piperidin-3-yl}imidazo[1,5-a]pyrazin-1-yl)-N-[4-(trifluoromethyl)pyridin-2-yl]benzamide] | > 8.00 |
| Cc1cnc(N)c2c(-c3ccc(C(=O)Nc4cc(OC5CC5)ccn4)cc3)nc([C@@H]3CCCN(C(=O)C4CC4)C3)n12 [Example 457, 4-{8-amino-3-[(3R)-1-(cyclopropylcarbonyl)piperidin-3-yl]-5-methylimidazo[1,5-a]pyrazin-1-yl}-N-[4-(cyclopropyloxy)pyridin-2-yl]benzamide] | > 8.00 |
| CC(=O)N1C[C@H](c2nc(-c3ccc(C(=O)Nc4cc(C(F)F)ccn4)cc3F)c3c(N)nccn23)CC[C@@H]1C [Example 435, 4-{3-[(3R,6S)-1-acetyl-6-methylpiperidin-3-yl]-8-aminoimidazo[1,5-a]pyrazin-1-yl}-N-[4-(difluoromethyl)pyridin-2-yl]-3-fluorobenzamide] | > 8.00 |

These compounds were tested against T1, hBTK (full-length BTK, 6HIS-tag cleaved) (assay: BTK enzymatic activity, IMAP-FP assay (Assay Method B)). Settings: IMAP-FP, 1.05 nM hBTK, 5 μM ATP; class 100-1000 is given as ≧100 nM-<1 μM; read-out: IC50 Btk activity values - Assay Method B.
Format: biochemical
Protocol: BTK enzymatic activity was determined in an IMAP-FP assay (Immobilized Metal ion Affinity-based fluorescence Polarization; Molecular Devices). […] Phosphorylation reactions were allowed to proceed for 120 minutes and were immediately quenched by the addition of 40 μL IMAP detection beads resuspended in IMAP progressive binding buffer (beads were diluted 1:600 in 75% and 25% progressive binding buffer A and B, respectively; Molecular Devices). Plates were read on Packard microplate reader after 60 minutes binding equilibration using Fluorescence Polarization protocol.

| pIC50 | SMILES |
| --- | --- |
| 7.00 to 8.00 | Nc1nccn2c([C@H]3CN(C(=O)C4(N)CCC4)CCO3)nc(-c3ccc(C(=O)Nc4cc(C(F)(F)F)ccn4)cc3)c12 [Example 499, 4-(8-amino-3-{(2R)-4-[(1-aminocyclobutyl)carbonyl]morpholin-2-yl}imidazo[1,5-a]pyrazin-1-yl)-N-[4-(trifluoromethyl)pyridin-2-yl]benzamide] |
| 6.00 to 7.00 | CN1CCN(C)[C@@H](c2nc(-c3ccc(C(=O)Nc4cc(C(F)(F)F)ccn4)cc3)c3c(N)nccn23)C1 [Example 565, 4-{8-amino-3-[(2R)-1,4-dimethylpiperazin-2-yl]imidazo[1,5-a]pyrazin-1-yl}-N-[4-(trifluoromethyl)pyridin-2-yl]benzamide] |
| 7.00 to 8.00 | Cc1cc(C(=O)Nc2cc(C(F)(F)F)ccn2)ccc1-c1nc([C@@H]2CCCN(C(=O)C3(C)COC3)C2)n2ccnc(N)c12 [Example 479, 4-(8-amino-3-{(3R)-1-[(3-methyloxetan-3-yl)carbonyl]piperidin-3-yl}imidazo[1,5-a]pyrazin-1-yl)-3-methyl-N-[4-(trifluoromethyl)pyridin-2-yl]benzamide] |
| > 8.00 | CCOc1ccnc(NC(=O)c2ccc(-c3nc([C@@H]4CC[C@H](C)N(C(=O)C5(C)COC5)C4)n4ccnc(N)c34)cc2)c1 [Example 404, 4-(8-amino-3-{(3R,6S)-6-methyl-1-[(3-methyloxetan-3-yl)carbonyl]piperidin-3-yl}imidazo[1,5-a]pyrazin-1-yl)-N-(4-ethoxypyridin-2-yl)benzamide] |
| > 8.00 | Nc1ncc(Br)n2c([C@@H]3CCCN(C(=O)C4CC4)C3)nc(-c3ccc(C(=O)Nc4cc(C(F)(F)F)ccn4)cc3)c12 [Example 577, (R)-4-(8-amino-5-bromo-3-(1-(cyclopropanecarbonyl)piperidin-3-yl)imidazo[1,5-a]pyrazin-1-yl)-N-(4-(trifluoromethyl)pyridin-2-yl)benzamide] |
| 6.00 to 7.00 | C[C@@H]1CC[C@@H](c2nc(-c3ccc(C(=O)Nc4cc(C(F)(F)F)ccn4)cc3)c3c(N)nccn23)CN1C(=O)C1(C)COC1 [Example 405, 4-(8-amino-3-{(3R,6R)-6-methyl-1-[(3-methyloxetan-3-yl)carbonyl]piperidin-3-yl}imidazo[1,5-a]pyrazin-1-yl)-N-[4-(trifluoromethyl)pyridin-2-yl]benzamide] |
| 7.00 to 8.00 | CC1(C(=O)N2CCC[C@@H](n3cc(-c4ccc(C(=O)Nc5cc(C#N)ccn5)cc4)c4c(N)ncnc43)C2)COC1 [Example 390, 4-(4-amino-7-{(3R)-1-[(3-methyloxetan-3-yl)carbonyl]piperidin-3-yl}-7H-pyrrolo[2,3-d]pyrimidin-5-yl)-N-(4-cyanopyridin-2-yl)benzamide] |

Further lines, the compound ahead of its results:

| SMILES | pIC50 |
| --- | --- |
| Cn1cc(CN2CCO[C@@H](c3nc(-c4ccc(C(=O)Nc5cc(C(F)(F)F)ccn5)cc4)c4c(N)nccn34)C2)cn1 [Example 495, 4-(8-amino-3-{(2R)-4-[(1-methyl-1H-pyrazol-4-yl)methyl]morpholin-2-yl}imidazo[1,5-a]pyrazin-1-yl)-N-[4-(trifluoromethyl)pyridin-2-yl]benzamide] | 7.00 to 8.00 |
| C[C@H]1CCN(C(=O)C2(C)COC2)C[C@@H]1c1nc(-c2ccc(C(=O)Nc3cc(C(F)(F)F)ccn3)cc2)c2c(N)nccn12 [Example 378, 4-(8-amino-3-{(3R,4S)-4-methyl-1-[(3-methyloxetan-3-yl)carbonyl]piperidin-3-yl}imidazo[1,5-a]pyrazin-1-yl)-N-[4-(trifluoromethyl)pyridin-2-yl]benzamide] | 7.00 to 8.00 |
| COc1ccnc(NC(=O)c2ccc(-c3nc([C@@H]4CC[C@H](C)N(C(=O)C5(C)COC5)C4)n4ccnc(N)c34)cc2)c1 [Example 403, 4-(8-amino-3-{(3R,6S)-6-methyl-1-[(3-methyloxetan-3-yl)carbonyl]piperidin-3-yl}imidazo[1,5-a]pyrazin-1-yl)-N-(4-methoxypyridin-2-yl)benzamide] | > 8.00 |
| Cc1cc(-c2nc([C@@H]3CCCN(C(=O)C4(C)COC4)C3)n3ccnc(N)c23)ccc1C(=O)Nc1cc(C(F)(F)F)ccn1 [Example 474, 4-(8-amino-3-{(3R)-1-[(3-methyloxetan-3-yl)carbonyl]piperidin-3-yl}imidazo[1,5-a]pyrazin-1-yl)-2-methyl-N-[4-(trifluoromethyl)pyridin-2-yl]benzamide] | 7.00 to 8.00 |
| C[C@H]1CC[C@H](c2nc(-c3ccc(C(=O)Nc4cc(C(F)(F)F)ccn4)cc3)c3c(N)nccn23)CN1C(=O)C1(C)COC1 [Example 407, 4-(8-amino-3-{(3S,6S)-6-methyl-1-[(3-methyloxetan-3-yl)carbonyl]piperidin-3-yl}imidazo[1,5-a]pyrazin-1-yl)-N-[4-(trifluoromethyl)pyridin-2-yl]benzamide] | 7.00 to 8.00 |
| Cn1cc(CN2CCN[C@@H](c3nc(-c4ccc(C(=O)Nc5cc(C(F)(F)F)ccn5)cc4)c4c(N)nccn34)C2)cn1 [Example 566, 4-(8-amino-3-{(2R)-4-[(1-methyl-1H-pyrazol-4-yl)methyl]piperazin-2-yl}imidazo[1,5-a]pyrazin-1-yl)-N-[4-(trifluoromethyl)pyridin-2-yl]benzamide] | 6.00 to 7.00 |
| CC1(C(=O)N2CCC[C@@H](n3cc(-c4ccc(C(=O)Nc5cc(C(F)(F)F)ccn5)cc4)c4c(N)ncnc43)C2)COC1 [Example 389, 4-(4-amino-7-{(3R)-1-[(3-methyloxetan-3-yl)carbonyl]piperidin-3-yl}-7H-pyrrolo[2,3-d]pyrimidin-5-yl)-N-[4-(trifluoromethyl)pyridin-2-yl]benzamide] | > 8.00 |
| C[C@@H]1C[C@@H](c2nc(-c3ccc(C(=O)Nc4cc(C(F)(F)F)ccn4)cc3)c3c(N)nccn23)CN(C(=O)C2(C)COC2)C1 [Example 375, 4-(8-amino-3-{(3R,5R)-5-methyl-1-[(3-methyloxetan-3-yl)carbonyl]piperidin-3-yl}imidazo[1,5-a]pyrazin-1-yl)-N-[4-(trifluoromethyl)pyridin-2-yl]benzamide] | 7.00 to 8.00 |
| Cn1cc(CN2CCO[C@@H](c3nc(-c4ccc(C(=O)Nc5cc(C6CC6)ccn5)cc4)c4c(N)nccn34)C2)cn1 [Example 498, 4-(8-amino-3-{(2R)-4-[(1-methyl-1H-pyrazol-4-yl)methyl]morpholin-2-yl}imidazo[1,5-a]pyrazin-1-yl)-N-(4-cyclopropylpyridin-2-yl)benzamide] | 7.00 to 8.00 |
| CCN1CCO[C@@H](c2nc(-c3ccc(C(=O)Nc4cc(C(F)(F)F)ccn4)cc3)c3c(N)nccn23)C1 [Example 496, 4-{8-amino-3-[(2R)-4-ethylmorpholin-2-yl]imidazo[1,5-a]pyrazin-1-yl}-N-[4-(trifluoromethyl)pyridin-2-yl]benzamide] | 7.00 to 8.00 |
| Cn1cc(CN2CCS(=O)(=O)C(c3nc(-c4ccc(C(=O)Nc5cc(C(F)(F)F)ccn5)cc4)c4c(N)nccn34)C2)cn1 (stereo not drawn) [Example 569, 4-(8-amino-3-{4-[(1-methyl-1H-pyrazol-4-yl)methyl]-1,1-dioxidothiomorpholin-2-yl}imidazo[1,5-a]pyrazin-1-yl)-N-[4-(trifluoromethyl)pyridin-2-yl]benzamide] | 6.00 to 7.00 |
| COc1cc(C(=O)Nc2cc(C(F)(F)F)ccn2)ccc1-c1nc([C@@H]2CC[C@H](C)N(C(=O)C3(C)COC3)C2)n2ccnc(N)c12 [Example 401, 4-(8-amino-3-{(3R,6S)-6-methyl-1-[(3-methyloxetan-3-yl)carbonyl]piperidin-3-yl}imidazo[1,5-a]pyrazin-1-yl)-3-methoxy-N-[4-(trifluoromethyl)pyridin-2-yl]benzamide] | > 8.00 |
| Nc1ncc(F)n2c([C@@H]3CCCN(C(=O)C4CC4)C3)nc(-c3ccc(C(=O)Nc4cc(C(F)(F)F)ccn4)cc3)c12 [Example 463, 4-{8-amino-3-[(3R)-1-(cyclopropylcarbonyl)piperidin-3-yl]-5-fluoroimidazo[1,5-a]pyrazin-1-yl}-N-[4-(trifluoromethyl)pyridin-2-yl]benzamide] | > 8.00 |

Same assay, conditions: IMAP-FP, 1.05 nM hBTK, 5 μM ATP; read-out: IC50 Btk activity values - Assay Method B

| SMILES | pIC50 |
| --- | --- |
| CC1(C(=O)N2CCN[C@@H](c3nc(-c4ccc(C(=O)Nc5cc(C(F)(F)F)ccn5)cc4)c4c(N)nccn34)C2)CC1 [Example 567, 4-(8-amino-3-{(2R)-4-[(1-methylcyclopropyl)carbonyl]piperazin-2-yl}imidazo[1,5-a]pyrazin-1-yl)-N-[4-(trifluoromethyl)pyridin-2-yl]benzamide] | ≤ 6.00 |
